Where two headings read alike, the source gives them in different places.
How the values were obtained:
EGFR del19/T790M/C797S = EGFR del19/T790M/C797S (Homo sapiens, UniProt P00533, C797S/DEL746-750/T790M); test: Biochemical EGFR kinase assay (Lance Ultra TR-FRET), triple mutant del19/T790M/C797S
Method in brief: (§1)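 In this biochemical assay, phosphorylation after a one-hour room-temperature reaction was detected with europium-labelled anti-phosphopeptide antibody at 2 nM final concentration.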

EGFR L858R/T790M/C797S = EGFR L858R/T790M/C797S (Homo sapiens, UniProt P00533, C797S/L858R/T790M); test: Biochemical EGFR kinase assay (Lance Ultra TR-FRET), triple mutant L858R/T790M/C797S
EGFR L858R/T790M/C797S, sequence (P00533 25-1210 T790M/C797S/L858R): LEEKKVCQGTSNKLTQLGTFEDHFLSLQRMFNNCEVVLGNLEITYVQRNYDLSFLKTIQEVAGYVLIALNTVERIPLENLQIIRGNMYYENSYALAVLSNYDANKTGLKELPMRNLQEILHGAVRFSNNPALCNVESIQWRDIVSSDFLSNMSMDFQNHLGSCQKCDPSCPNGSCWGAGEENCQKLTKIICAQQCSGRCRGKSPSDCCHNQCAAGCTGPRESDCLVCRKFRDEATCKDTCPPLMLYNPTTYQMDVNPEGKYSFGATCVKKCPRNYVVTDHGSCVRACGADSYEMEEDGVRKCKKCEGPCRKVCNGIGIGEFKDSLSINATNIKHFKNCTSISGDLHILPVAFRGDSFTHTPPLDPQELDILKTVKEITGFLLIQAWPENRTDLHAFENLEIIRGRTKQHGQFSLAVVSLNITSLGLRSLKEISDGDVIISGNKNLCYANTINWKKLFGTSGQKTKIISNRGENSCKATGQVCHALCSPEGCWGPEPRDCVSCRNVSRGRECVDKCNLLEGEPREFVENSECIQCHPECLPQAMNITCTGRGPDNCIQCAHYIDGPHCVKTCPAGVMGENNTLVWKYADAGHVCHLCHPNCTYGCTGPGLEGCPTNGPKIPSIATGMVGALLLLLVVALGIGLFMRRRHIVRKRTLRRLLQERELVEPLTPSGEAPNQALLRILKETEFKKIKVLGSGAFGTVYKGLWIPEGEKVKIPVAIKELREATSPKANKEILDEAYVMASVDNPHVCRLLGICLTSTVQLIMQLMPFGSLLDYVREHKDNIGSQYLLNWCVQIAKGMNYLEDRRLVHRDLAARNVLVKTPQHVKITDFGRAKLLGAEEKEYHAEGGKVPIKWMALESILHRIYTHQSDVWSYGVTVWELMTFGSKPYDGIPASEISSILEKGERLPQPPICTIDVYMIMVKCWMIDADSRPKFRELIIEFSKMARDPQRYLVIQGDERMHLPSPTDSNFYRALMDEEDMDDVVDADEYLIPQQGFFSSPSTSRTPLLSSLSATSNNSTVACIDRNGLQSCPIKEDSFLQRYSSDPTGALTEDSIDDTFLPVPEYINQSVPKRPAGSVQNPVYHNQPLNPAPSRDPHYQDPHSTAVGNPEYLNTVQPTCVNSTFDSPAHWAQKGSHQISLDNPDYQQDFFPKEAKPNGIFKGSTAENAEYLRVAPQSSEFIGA
Method in brief: as §1

EGFR del19/C797S = EGFR del19/C797S (Homo sapiens, UniProt P00533, C797S/DEL746-750); test: Biochemical EGFR kinase assay (Lance Ultra TR-FRET), double mutant del19/C797S
EGFR del19/C797S, sequence (P00533 with tags, fused parts or gaps DEL746-750/C797S): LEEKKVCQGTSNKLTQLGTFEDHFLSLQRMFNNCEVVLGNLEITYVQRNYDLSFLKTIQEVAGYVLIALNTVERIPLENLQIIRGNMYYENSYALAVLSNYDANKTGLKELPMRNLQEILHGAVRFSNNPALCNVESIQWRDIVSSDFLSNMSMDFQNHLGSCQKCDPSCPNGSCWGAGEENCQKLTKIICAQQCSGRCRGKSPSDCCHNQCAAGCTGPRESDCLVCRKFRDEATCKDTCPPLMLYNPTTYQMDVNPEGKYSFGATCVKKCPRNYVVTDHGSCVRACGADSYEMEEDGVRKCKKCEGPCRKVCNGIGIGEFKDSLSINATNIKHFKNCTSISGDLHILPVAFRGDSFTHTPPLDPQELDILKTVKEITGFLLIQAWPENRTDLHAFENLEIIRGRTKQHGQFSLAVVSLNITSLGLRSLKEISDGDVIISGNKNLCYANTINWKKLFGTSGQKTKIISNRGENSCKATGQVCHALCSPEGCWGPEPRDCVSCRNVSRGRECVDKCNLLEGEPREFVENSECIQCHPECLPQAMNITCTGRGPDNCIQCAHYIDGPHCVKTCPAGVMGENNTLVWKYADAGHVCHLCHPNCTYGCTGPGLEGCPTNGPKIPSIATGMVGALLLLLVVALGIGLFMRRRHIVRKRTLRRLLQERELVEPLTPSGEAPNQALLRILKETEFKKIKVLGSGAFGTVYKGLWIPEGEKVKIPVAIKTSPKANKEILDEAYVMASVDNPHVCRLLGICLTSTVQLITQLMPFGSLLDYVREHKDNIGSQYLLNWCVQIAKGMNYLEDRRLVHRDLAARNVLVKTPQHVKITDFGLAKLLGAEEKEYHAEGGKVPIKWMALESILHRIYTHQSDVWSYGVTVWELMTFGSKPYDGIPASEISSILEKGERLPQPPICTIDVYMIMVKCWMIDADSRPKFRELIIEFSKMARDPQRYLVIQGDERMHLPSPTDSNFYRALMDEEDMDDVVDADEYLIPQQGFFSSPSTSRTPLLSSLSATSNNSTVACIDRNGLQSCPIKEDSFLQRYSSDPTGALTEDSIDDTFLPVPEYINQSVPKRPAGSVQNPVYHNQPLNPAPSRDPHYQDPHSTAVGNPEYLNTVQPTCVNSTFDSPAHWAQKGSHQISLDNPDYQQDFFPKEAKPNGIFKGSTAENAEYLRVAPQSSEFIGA
Method in brief: as §1

EGFR L858R/C797S = EGFR L858R/C797S (Homo sapiens, UniProt P00533, C797S/L858R); test: Biochemical EGFR kinase assay (Lance Ultra TR-FRET), double mutant L858R/C797S
EGFR L858R/C797S, sequence (P00533 25-1210 C797S/L858R): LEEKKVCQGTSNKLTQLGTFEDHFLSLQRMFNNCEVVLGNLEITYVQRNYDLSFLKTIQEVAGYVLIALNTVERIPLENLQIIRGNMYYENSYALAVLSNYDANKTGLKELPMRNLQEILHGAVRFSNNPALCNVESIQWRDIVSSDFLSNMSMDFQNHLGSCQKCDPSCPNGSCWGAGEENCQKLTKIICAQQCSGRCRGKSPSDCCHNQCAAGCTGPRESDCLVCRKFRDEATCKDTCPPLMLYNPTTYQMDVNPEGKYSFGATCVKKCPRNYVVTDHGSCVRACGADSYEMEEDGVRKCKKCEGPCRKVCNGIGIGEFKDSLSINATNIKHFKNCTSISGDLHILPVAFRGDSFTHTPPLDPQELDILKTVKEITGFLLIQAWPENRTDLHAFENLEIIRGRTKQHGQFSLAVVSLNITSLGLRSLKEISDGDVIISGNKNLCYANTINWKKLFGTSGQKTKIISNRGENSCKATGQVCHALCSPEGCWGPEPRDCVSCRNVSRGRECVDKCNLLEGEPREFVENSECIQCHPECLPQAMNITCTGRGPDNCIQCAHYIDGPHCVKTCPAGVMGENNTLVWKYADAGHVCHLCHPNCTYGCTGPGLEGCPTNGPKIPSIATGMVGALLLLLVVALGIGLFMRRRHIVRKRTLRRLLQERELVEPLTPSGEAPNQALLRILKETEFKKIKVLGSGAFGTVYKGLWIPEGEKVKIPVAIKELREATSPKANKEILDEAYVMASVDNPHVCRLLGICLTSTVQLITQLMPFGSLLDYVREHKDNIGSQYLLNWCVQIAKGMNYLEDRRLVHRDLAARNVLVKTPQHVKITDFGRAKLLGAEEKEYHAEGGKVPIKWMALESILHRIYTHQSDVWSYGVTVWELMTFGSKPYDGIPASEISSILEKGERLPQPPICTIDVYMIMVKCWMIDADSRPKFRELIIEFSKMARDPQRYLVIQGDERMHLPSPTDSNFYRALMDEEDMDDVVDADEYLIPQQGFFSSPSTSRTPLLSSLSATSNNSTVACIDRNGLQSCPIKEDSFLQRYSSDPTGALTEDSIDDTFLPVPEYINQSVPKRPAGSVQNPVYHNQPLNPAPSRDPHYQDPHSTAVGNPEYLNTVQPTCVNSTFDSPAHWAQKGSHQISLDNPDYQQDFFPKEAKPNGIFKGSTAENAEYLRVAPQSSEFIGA
Method in brief: as §1

EGFR wildtype (WT) = EGFR wildtype (WT) (Homo sapiens, UniProt P00533); test: Biochemical EGFR kinase assay (Lance Ultra TR-FRET), wildtype
EGFR wildtype (WT), sequence (P00533 25-1210): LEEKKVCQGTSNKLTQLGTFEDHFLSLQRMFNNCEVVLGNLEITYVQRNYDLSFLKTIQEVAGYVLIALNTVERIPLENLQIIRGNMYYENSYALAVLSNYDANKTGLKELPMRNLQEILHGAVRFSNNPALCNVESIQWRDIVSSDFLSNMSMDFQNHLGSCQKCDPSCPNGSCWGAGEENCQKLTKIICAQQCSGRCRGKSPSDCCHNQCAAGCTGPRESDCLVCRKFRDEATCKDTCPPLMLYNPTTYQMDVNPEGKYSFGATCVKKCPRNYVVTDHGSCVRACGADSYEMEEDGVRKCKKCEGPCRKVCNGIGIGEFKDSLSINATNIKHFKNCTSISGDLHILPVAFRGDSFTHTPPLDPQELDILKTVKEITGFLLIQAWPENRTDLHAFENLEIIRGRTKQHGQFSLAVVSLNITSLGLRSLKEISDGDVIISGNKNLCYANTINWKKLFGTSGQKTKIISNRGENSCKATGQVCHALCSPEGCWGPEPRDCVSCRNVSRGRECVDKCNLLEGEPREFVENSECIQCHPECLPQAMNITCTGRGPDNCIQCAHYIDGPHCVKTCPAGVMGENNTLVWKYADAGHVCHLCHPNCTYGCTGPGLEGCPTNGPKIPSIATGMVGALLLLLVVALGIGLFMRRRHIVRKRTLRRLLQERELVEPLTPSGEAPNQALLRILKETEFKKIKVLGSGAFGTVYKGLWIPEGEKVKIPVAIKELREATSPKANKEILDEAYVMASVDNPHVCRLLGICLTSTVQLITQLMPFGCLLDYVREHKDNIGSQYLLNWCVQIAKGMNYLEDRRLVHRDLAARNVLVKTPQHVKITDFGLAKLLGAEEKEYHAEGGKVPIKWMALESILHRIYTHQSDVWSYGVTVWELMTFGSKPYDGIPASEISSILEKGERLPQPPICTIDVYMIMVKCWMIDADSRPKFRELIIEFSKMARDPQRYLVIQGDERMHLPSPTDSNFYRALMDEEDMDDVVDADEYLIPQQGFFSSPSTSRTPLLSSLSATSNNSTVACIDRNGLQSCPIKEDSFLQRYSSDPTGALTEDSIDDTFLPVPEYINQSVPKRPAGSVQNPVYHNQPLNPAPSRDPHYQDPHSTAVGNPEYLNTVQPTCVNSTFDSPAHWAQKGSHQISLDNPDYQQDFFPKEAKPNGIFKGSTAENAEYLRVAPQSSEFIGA
Method in brief: as §1

[1] = IC50 del19/T790M/C797S (nM) 100 μM ATP, 100 μM ATP
[2] = Km ATP, read-out: IC50 del19/T790M/C797S (nM) Km ATP
[3] = IC50 L858R/T790M/C797S (nM) 100 μM ATP, 100 μM ATP
[4] = Km ATP, read-out: IC50 L858R/T790M/C797S (nM) Km ATP
[5] = IC50 del19/C797S (nM) 100 μM ATP, 100 μM ATP
[6] = Km ATP, read-out: IC50 del19/C797S (nM) Km ATP
[7] = IC50 L858R/C797S (nM) 100 μM ATP, 100 μM ATP
[8] = Km ATP, read-out: IC50 L858R/C797S (nM) Km ATP
[9] = IC50 WT (nM) 100 μM ATP, 100 μM ATP
[10] = Km ATP, read-out: IC50 WT (nM) Km ATP

SMILES	IC50 (EGFR del19/T790M/C797S; [1]) [nM]	IC50 (EGFR del19/T790M/C797S; [2]) [nM]	IC50 (EGFR L858R/T790M/C797S; [3]) [nM]	IC50 (EGFR L858R/T790M/C797S; [4]) [nM]	IC50 (EGFR del19/C797S; [5]) [nM]	IC50 (EGFR del19/C797S; [6]) [nM]	IC50 (EGFR L858R/C797S; [7]) [nM]	IC50 (EGFR L858R/C797S; [8]) [nM]	IC50 (EGFR wildtype (WT); [9]) [nM]	IC50 (EGFR wildtype (WT); [10]) [nM]
CN(C)C(=O)[C@H]1CC[C@@H](Nc2cc(Nc3ccnc(-c4cnn(S(=O)(=O)C5CC5)c4)n3)ncc2-c2cc(C(F)(F)F)n(C)n2)CC1 [Example 257, (1s,4s)-4-((2-((2-(1-(Cyclopropylsulfonyl)-1H-pyrazol-4-yl)pyrimidin-4-yl)amino)-5-(1-methyl-5-(trifluoromethyl)-1H-pyrazol-3-yl)pyridin-4-yl)amino)-N,N-dimethylcyclohexane-1-carboxamide]	3.7	4.3	1.6	1.1	6	2.1	29.1	5.2	294	7.5
FC(F)Cn1cc(-c2nccc(Nc3cc(N[C@H]4CC[C@@H](F)CC4)c(-c4ccn(C(F)F)n4)cn3)n2)cn1 [Example 161, N^2-(2-(1-(2,2-Difluoroethyl)-1H-pyrazol-4-yl)pyrimidin-4-yl)-5-(1-(difluoromethyl)-1H-pyrazol-3-yl)-N^4-((1s,4s)-4-fluorocyclohexyl)pyridine-2,4-diamine]	–	3.2	–	2.4	–	276	–	60.6	–	640
CS(=O)(=O)c1ccccc1Nc1nccc(Nc2cc(N[C@H]3CC[C@@](C)(O)CC3)c(-c3ccn(C(F)F)n3)cn2)n1 [Example 313, (1s,4s)-4-((5-(1-(Difluoromethyl)-1H-pyrazol-3-yl)-2-((2-((2-(methylsulfonyl)phenyl)amino)pyrimidin-4-yl)amino)pyridin-4-yl)amino)-1-methylcyclohexan-1-ol]	2.1	–	12.6	–	74.5	39.9	627	146	> 10000	1610
O=S(=O)(C1CC1)n1cc(-c2nccc(Nc3cc(NC4CCC(O)(C5CC5)CC4)c(-c4ccn(C(F)F)n4)cn3)n2)cn1 (stereo not shown) [Example 110, 1-Cyclopropyl-4-((2-((2-(1-(cyclopropylsulfonyl)-1H-pyrazol-4-yl)pyrimidin-4-yl)amino)-5-(1-(difluoromethyl)-1H-pyrazol-3-yl)pyridin-4-yl)amino)cyclohexan-1-ol]	–	2.5	–	1.9	–	24.7	–	23.7	–	34.5
CC(C)c1cc(-c2cnc(Nc3ccnc(-c4cnn(S(=O)(=O)C5CC5)c4)n3)cc2N[C@H]2CC[C@@](C)(O)CC2)on1 [Example 64, (1s,4s)-4-((2-((2-(1-(Cyclopropylsulfonyl)-1H-pyrazol-4-yl)pyrimidin-4-yl)amino)-5-(3-isopropylisoxazol-5-yl)pyridin-4-yl)amino)-1-methylcyclohexan-1-ol]	1	1	–	0.5	3.3	2.7	21	–	> 10000	42.9
O=S(=O)(C1CC1)n1cc(-c2nccc(Nc3cc(NC4CC5CC(O)C4C5)c(-c4ccn(C(F)F)n4)cn3)n2)cn1 (stereo not shown) [Example 39, 6-((2-((2-(1-(Cyclopropylsulfonyl)-1H-pyrazol-4-yl)pyrimidin-4-yl)amino)-5-(1-(difluoromethyl)-1H-pyrazol-3-yl)pyridin-4-yl)amino)bicycle[2.2.1]heptan-2-ol]	3.6	1.6	7.9	1.2	17.6	7.2	262	27.8	> 10000	143

Reference: patent publication US12258327B2, “5-membered heteroaryl-containing aminopyridine compounds as EGFR inhibitors” (YUHAN CORPORATION, priority 2021, dated 2025)
